Emax and EC50 data for 40 compounds are collected here from patent publication US20240217966A1, “PHARMACEUTICAL COMPOSITION CONTAINING GLP-1 RECEPTOR AGONIST HAVING FUSED RING” (Shionogi & Co., Ltd., priority 2021, published 2024).

pEC50: −log10 of the molar value.

The target in the assay is T1, Human GLP-1 receptor (Homo sapiens, UniProt P43220).
T1 construct: expressed in transfected cells
The experiment in a line: Measurement of GLP-1 receptor agonist activity (cAMP assay). It is filed as cell-based. Conditions: for Emax: CHO-K1, hGLP-1R/CHO-K1 cells, cAMP, 100% = human GLP-1 (7-36) at 2 nM, 0% = DMSO only, read-out: Emax(%); for pEC50: hGLP-1R/CHO-K1 cells, cAMP increase, 37° C. 1 hour. The protocol: Test Example 1: (Measurement of GLP-1 Receptor Agonist Activity)
Human GLP-1 receptor stably expressing cells (hGLP-1R/CHO-K1 cells) are cultured in an α-MEM medium (Sigma) containing 10% FBS (Hyclone), 2% GlutaMAX (Gibco), 1% G418 (Nacalai Tesque), and 1% Penicillin-Streptomycin Mixed Solution (Sigma) at 37° C. under 5% CO2 conditions, and recovered by treating a 10 fold diluted 5.0 g/l-trypsin/5.3 mmol/l-EDTA solution (Nacalai Tesque) and cryopreserved.
A DMSO solution containing the compound of the present invention or human GLP-1 (7-36) (Phoenix Pharmaceuticals) is dispensed into a 384-well microplate (Greiner) at 62.5 nL/well, and in addition, 400 μM Forskolin (Nacalai Tesque) is dispensed therein at 7.5 nL/well. Subsequently, the frozen GLP-1 R/CHO-K1 cells are thawed in a thermostatic bath at 37° C., suspended in HBSS buffer (GIBCO) containing 0.1% BSA (Sigma), 20 mM HEPES (GIBCO), 0.1 mM IBMX (Sigma), and 0.2 mM RO20-1724 (Calbiochem) at 2×10^4 cells/mL, and the cell suspension is added at 6 μL/well. The solution was incubated at 37° C. for 1 hour and intracellular cAMP concentration is measured using cAMP Gs dynamic kit (Cisbio) according to the protocol attached to the product. Specifically, cAMP-d2 and Anti-cAMP-Cryptate are each added in an amount of 3 μL/well, the mixture is incubated at room temperature for 1 hour, and time-resolved fluorescence is measured using PHERAstar (BMG Labtech).
The dilution concentration or the dilution solvent are changed as necessary.
The compounds of the present invention were tested essentially as described above.
A general note: cAMP levels reflect the balance of adenylyl cyclase and phosphodiesterase activity.

T1 sequence (P43220 24-463): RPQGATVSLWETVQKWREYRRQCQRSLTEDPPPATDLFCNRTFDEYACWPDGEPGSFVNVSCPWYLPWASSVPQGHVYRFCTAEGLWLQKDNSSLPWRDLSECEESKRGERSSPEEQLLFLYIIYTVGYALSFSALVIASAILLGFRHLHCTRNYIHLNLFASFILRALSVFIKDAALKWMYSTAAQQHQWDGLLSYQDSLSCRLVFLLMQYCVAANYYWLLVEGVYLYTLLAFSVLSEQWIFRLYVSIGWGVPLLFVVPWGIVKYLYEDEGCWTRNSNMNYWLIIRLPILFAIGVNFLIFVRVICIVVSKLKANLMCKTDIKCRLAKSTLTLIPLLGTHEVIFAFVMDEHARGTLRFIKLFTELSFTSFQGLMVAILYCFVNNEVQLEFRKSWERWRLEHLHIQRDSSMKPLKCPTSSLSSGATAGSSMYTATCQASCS

One may read the Emax as the maximal effect, on the per cent scale that the assay sets. As usually defined, the pEC50 is the negative decadic logarithm of the EC50, by convention in mol/L. High values mean a low EC50, low ones a high EC50. In the case of `O=C(O)c1ccc2nc(CN3CCc4cc(C(F)(F)F)c(OCc5ccc(Cl)cc5F)cc4C3)n(Cc3ncco3)c2c1` [Compound I-052], the Emax amounted to 92% and the pEC50 was 7.61.

`N#Cc1ccc(COc2cc3c(cc2C(F)(F)F)CCN(Cc2nc4ccc(C(=O)O)cc4n2C[C@@H]2CCO2)C3)c(F)c1` [Compound I-053]: the Emax came out at 115% and the pEC50 was 7.84.

As for `O=C(O)c1ccc2nc(CN3CCc4cc(C(F)(F)F)c(OCc5ccc(Cl)cc5F)cc4C3)n(C[C@@H]3CCO3)c2c1F` [Compound I-054], the Emax turned out to be 104% and the pEC50 was 9.02.

`O=C(NS(=O)(=O)C1CC1)c1ccc2nc(CN3CCc4cc(C(F)(F)F)c(OCc5ccc(Cl)cc5F)cc4C3)n(C[C@@H]3CCO3)c2c1` [Compound I-055]: the Emax amounted to 87.3% and the pEC50 is 7.10.

With `O=C(O)c1ccc2nc(CN3CCc4cc(C(F)(F)F)c(OCc5ccc(C(F)F)cc5F)cc4C3)n(C[C@@H]3CCO3)c2c1` [Compound I-056], the Emax was 110% and the pEC50 was 8.22.

For the compound `O=C(O)c1ccc2nc(CN3CCc4cc(C(F)(F)F)c(OCc5ccc(Cl)c(F)c5F)cc4C3)n(C[C@@H]3CCO3)c2c1` [Compound I-059], the Emax is 112% and the pEC50 is 7.52.

On to `O=C(O)c1cc(Cl)c2nc(CN3CCc4cc(C(F)(F)F)c(OCc5ccc(Cl)cc5F)cc4C3)n(C[C@@H]3CCO3)c2c1` [Compound I-061], for which the Emax is 113% and the pEC50 was 8.81.

Take `O=C(O)c1ccc2nc(CN3CCc4nc(C(F)(F)F)c(OCc5ccc(Cl)cc5F)cc4C3)n(C[C@@H]3CCO3)c2c1` [Compound I-062]: the Emax was determined as 98.3% and the pEC50 is 7.94.

`O=C(O)c1ccc2nc(CN3CCc4cc(C(F)(F)F)c(OCc5ccc(Cl)cc5F)cc4C3)n(CCOC(F)F)c2c1` [Compound I-063]: the Emax was 128% and the pEC50 was 7.01.

For the compound `O=C(O)c1ccc2nc(CN3CCc4cc(C(F)(F)F)c(OCc5cc(F)c(Cl)cc5F)cc4C3)n(C[C@@H]3CCO3)c2c1` [Compound I-064], the Emax was 102% and the pEC50 was 8.24.

As for `Fc1cc(Cl)ccc1COc1cc2c(cc1C(F)(F)F)CCN(Cc1nc3ccc(-c4nnn[nH]4)cc3n1C[C@@H]1CCO1)C2` [Compound I-065], the Emax was 116% and the pEC50 is 8.01.

In the case of `O=C(O)c1ccc2nc(CN3CCc4cc(C(F)(F)F)c(OCc5ccc(Cl)cn5)cc4C3)n(C[C@@H]3CCO3)c2c1` [Compound I-067], the Emax worked out at 130% and the pEC50 was 8.48.

On to `O=C(O)c1ccc2nc(CN3CCc4cc(C(F)(F)F)c(OCc5ncc(Cl)cc5F)cc4C3)n(C[C@@H]3CCO3)c2c1` [Compound I-068], for which the Emax amounted to 114% and the pEC50 is 8.45.

Take `Cn1ccc(COc2cc3c(cc2C(F)(F)F)CCN(Cc2nc4ccc(C(=O)O)cc4n2C[C@@H]2CCO2)C3)n1` [Compound I-069]: the Emax came out at 116% and the pEC50 was 8.14.

As for `Cc1cc(COc2cc3c(cc2C(F)(F)F)CCN(Cc2nc4ccc(C(=O)O)cc4n2C[C@@H]2CCO2)C3)no1` [Compound I-070], the maximal response (Emax) was 119% and the pEC50 is 7.63.

In the case of `Cn1cc(COc2cc3c(cc2C(F)(F)F)CCN(Cc2nc4ccc(C(=O)O)cc4n2C[C@@H]2CCO2)C3)cn1` [Compound I-071], the Emax was 114% and the pEC50 is 7.19.

On to `Cn1nnc2cc(COc3cc4c(cc3C(F)(F)F)CCN(Cc3nc5ccc(C(=O)O)cc5n3C[C@@H]3CCO3)C4)ccc21` [Compound I-072], for which the Emax was 127% and the pEC50 is 7.90.

Consider `O=C(O)c1ccc2nc(CN3CCc4cc(C(F)(F)F)c(OCc5ccc6c(c5)CCC6)cc4C3)n(C[C@@H]3CCO3)c2c1` [Compound I-074], for which the Emax stood at 100% and the pEC50 was 7.40.

On to `O=C(O)c1ccc2nc(Cc3ccc4nc(C(F)(F)F)c(OCc5ccc(Cl)cc5F)nc4c3)n(C[C@@H]3CCO3)c2c1` [Compound I-076], for which the Emax amounted to 108% and the pEC50 was 8.80.

For `O=C(O)c1ccc2nc(CN3CCc4cc(C(F)(F)F)c(OCc5ccc(Cl)cc5F)cc4C3)n(C[C@@H]3CCO3)c2c1Cl` [Compound I-078], the Emax was 112% and the pEC50 was 7.54.

As to `O=C(O)c1ccc2nc(CN3CCc4cc(C(F)(F)F)c(OCc5ccc(F)cc5)cc4C3)n(C[C@@H]3CCO3)c2c1` [Compound I-079], the Emax worked out at 103% and the pEC50 was 8.17.

Regarding `O=C(O)c1ccc2nc(CN3CCc4cc(C(F)(F)F)c(OCc5ccc(Cl)cc5)cc4C3)n(C[C@@H]3CCO3)c2c1` [Compound I-080], the Emax came to 103% and the pEC50 is 8.41.

Turning to `O=C(O)c1ccc2nc(CN3CCc4cc(C(F)(F)F)c(OCc5ccc(C(F)F)cc5)cc4C3)n(C[C@@H]3CCO3)c2c1` [Compound I-081], the Emax turned out to be 101% and the pEC50 is 8.12.

Take `O=C(O)c1ccc2nc(CN3CCc4cc(C(F)(F)F)c(OCc5ccc(OC(F)F)cc5)cc4C3)n(C[C@@H]3CCO3)c2c1` [Compound I-082]: the Emax amounted to 103% and the pEC50 is 8.63.

Consider `O=C(O)c1ccc2nc(CN3CCc4cc(C(F)(F)F)c(OCc5ccc(C(F)(F)F)cc5)cc4C3)n(C[C@@H]3CCO3)c2c1` [Compound I-083], for which the Emax is 93% and the pEC50 was 7.67.

Regarding `O=C(O)c1ccc2nc(CN3CCc4cc(C(F)(F)F)c(OCc5ccc(OC(F)(F)F)cc5)cc4C3)n(C[C@@H]3CCO3)c2c1` [Compound I-084], the Emax came out at 106% and the pEC50 was 7.04.

As for `Cc1ccc(COc2cc3c(cc2C(F)(F)F)CCN(Cc2nc4ccc(C(=O)O)cc4n2C[C@@H]2CCO2)C3)cc1` [Compound I-085], the Emax worked out at 111% and the pEC50 is 8.35.

Regarding `CS(=O)(=O)c1ccc(COc2cc3c(cc2C(F)(F)F)CCN(Cc2nc4ccc(C(=O)O)cc4n2C[C@@H]2CCO2)C3)cc1` [Compound I-086], the Emax was found to be 106% and the pEC50 is 7.75.

Consider `O=C(O)c1ccc2nc(CN3CCc4cc(C(F)(F)F)c(OCc5ccccc5-c5ccccc5)cc4C3)n(C[C@@H]3CCO3)c2c1` [Compound I-088], for which the Emax was determined as 147% and the pEC50 is 8.11.

As for `O=C(O)c1ccc2nc(CN3CCc4cc(C(F)(F)F)c(OCc5ccccc5Cl)cc4C3)n(C[C@@H]3CCO3)c2c1` [Compound I-090], the Emax is 106% and the pEC50 was 8.18.

With `O=C(O)c1ccc2nc(CN3CCc4cc(C(F)(F)F)c(OCc5ccc(F)c(F)c5)cc4C3)n(C[C@@H]3CCO3)c2c1` [Compound I-093], the Emax was determined as 111% and the pEC50 is 7.78.

As for `O=C(O)c1ccc2nc(CN3CCc4cc(C(F)(F)F)c(OCc5ccc(F)c(F)c5F)cc4C3)n(C[C@@H]3CCO3)c2c1` [Compound I-094], the Emax was found to be 102% and the pEC50 was 7.55.

Consider `O=C(O)c1ccc2nc(CN3CCc4cc(C(F)(F)F)c(OCc5cc(F)c(F)cc5F)cc4C3)n(C[C@@H]3CCO3)c2c1` [Compound I-095], for which the Emax was 112% and the pEC50 was 7.98.

Regarding `O=C(O)c1ccc2nc(CN3CCc4cc(C(F)(F)F)c(OCc5ccc(F)cc5Cl)cc4C3)n(C[C@@H]3CCO3)c2c1` [Compound I-097], the Emax was 105% and the pEC50 is 8.62.

For `O=C(O)c1ccc2nc(CN3CCc4cc(C(F)(F)F)c(OCc5ccc(Cl)c(F)c5)cc4C3)n(C[C@@H]3CCO3)c2c1` [Compound I-098], the Emax was 120% and the pEC50 is 7.96.

As for `O=C(O)c1ccc2nc(CN3CCc4cc(C(F)(F)F)c(OCc5ccc(Cl)cc5Cl)cc4C3)n(C[C@@H]3CCO3)c2c1` [Compound I-099], the Emax amounted to 114% and the pEC50 is 8.84.

For the compound `O=C(O)c1ccc2nc(CN3CCc4cc(C(F)(F)F)c(OCc5ccc(Cl)cc5C(F)(F)F)cc4C3)n(C[C@@H]3CCO3)c2c1` [Compound I-100], the Emax amounted to 90.7% and the pEC50 is 7.02.

Take `O=C(O)c1ccc2nc(CN3CCc4cc(C(F)(F)F)c(OCc5c(F)cc(Cl)cc5F)cc4C3)n(C[C@@H]3CCO3)c2c1` [Compound I-101]: the Emax turned out to be 113% and the pEC50 is 8.65.

As for `O=C(O)c1ccc2nc(CN3CCc4cc(C(F)(F)F)c(OCc5ccc(C6CC6)cc5)cc4C3)n(C[C@@H]3CCO3)c2c1` [Compound I-102], the Emax worked out at 106% and the pEC50 is 8.29.

Take `N#Cc1ccc(COc2cc3c(cc2C(F)(F)F)CCN(Cc2nc4ccc(C(=O)O)cc4n2C[C@@H]2CCO2)C3)cc1` [Compound I-103]: the Emax was found to be 113% and the pEC50 is 8.25.
